# Read-outs that look alike come from different tables or passages of the source.
# Key:
# Assay in all cases: In vitro antibacterial activity test (broth microdilution)
# Format in all cases: cell-based
# A. baumannii 46 = system: A. baumannii 46
# Experimental: (§1) To evaluate antibacterial activity of each of the compounds of Examples 1 to 68, in vitro antibacterial activity test was performed.
# (§2) The in vitro antibacterial activity was evaluated by measuring MIC90 (ug/mL) of each of the compounds of Examples 1 to 68, which is defined as the lowest concentration of an antibiotic that will inhibit the visible growth of 90% of microorganisms after incubation as compared with a control group to which the antibiotic is not treated. MIC90 values were measured by the broth microdilution method developed by the Clinical and Laboratory Standards Institute (CLSI) (see CLSI M7-A5, Methods for Dilution Antimicrobial Susceptibility Test for Bacteria that Grow Aerobically-Fifth Edition (2000): CLSI, Villanova, Pa.).
# (§3) In vitro antibacterial activity was measured with respect to the following 19 clinical isolates: M. catarrhalis; P. aeruginosa (5 strains); K. pneumoniae (6 strains); A. baumannii (3 strains); E. coli (2 strains); A. calcoaceticus; and E. cloacae.
# (§4) Test compounds each (the cephalosporin derivative compounds prepared in Examples 1 to 68) were dissolved in DMSO at the concentration of 10,240 ug/mL, were diluted by two fold with DMSO, and then were diluted by twenty fold with sterilized distilled water. The final concentration in the antibacterial activity test was in the range of […] to 128 ug/mL, and the final concentration of DMSO used as an adjuvant was 2.5% (V/V).
# A. baumannii 49 = system: A. baumannii 49
# Experimental: as §1, §2, §3, §4
# A. baumannii 52 = system: A. baumannii 52
# Experimental: as §1, §2, §3, §4
# [1] = system: A. calcoaceticus ATCC15473
# Experimental: as §1, §2, §3, §4
# E. cloacae β19 = system: E. cloacae β19
# Experimental: as §1, §2, §3, §4
# E. coli AG100 = system: E. coli AG100
# Experimental: as §1, §2, §3, §4
# E. coli β4 = system: E. coli β4
# Experimental: as §1, §2, §3, §4
# K. pneumoniae 2011E = system: K. pneumoniae 2011E
# Experimental: as §1, §2, §3, §4
# K. pneumoniae β10 = details: Klebsiella pneumoniae
# Experimental: as §1, §2, §3, §4
# K. pneumoniae β11 = details: Klebsiella pneumoniae
# Experimental: as §1, §2, §3, §4
# K. pneumoniae β13 = details: Klebsiella pneumoniae
# Experimental: as §1, §2, §3, §4
# K. pneumoniae β14 = system: K. pneumoniae β14
# Experimental: as §1, §2, §3, §4
# K. pneumoniae β9 = details: Klebsiella pneumoniae
# Experimental: as §1, §2, §3, §4
# M. catarrhalis 2524 = system: M. catarrhalis 2524
# Experimental: as §1, §2, §3, §4
# P. aeruginosa 1912E = system: P. aeruginosa 1912E
# Experimental: as §1, §2, §3, §4
# P. aeruginosa 37 = system: P. aeruginosa 37
# Experimental: as §1, §2, §3, §4
# P. aeruginosa 40 = system: P. aeruginosa 40
# Experimental: as §1, §2, §3, §4
# P. aeruginosa 43 = system: P. aeruginosa 43
# Experimental: as §1, §2, §3, §4
# P. aeruginosa 6065Y = system: P. aeruginosa 6065Y
# Experimental: as §1, §2, §3, §4
# [2] = Acinetobacter baumannii, A. baumannii 46, read-out: MIC90
# [3] = Acinetobacter baumannii, A. baumannii 49, read-out: MIC90
# [4] = Acinetobacter baumannii, A. baumannii 52, read-out: MIC90
# [5] = Acinetobacter calcoaceticus, A. calcoaceticus ATCC15473, read-out: MIC90
# [6] = Enterobacter cloacae, read-out: MIC90
# [7] = Escherichia coli, AG100, E. coli AG100, read-out: MIC90
# [8] = Escherichia coli, read-out: MIC90
# [9] = Klebsiella pneumoniae, 2011E, K. pneumoniae 2011E, read-out: MIC90
# [10] = K. pneumoniae β10, read-out: MIC90
# [11] = K. pneumoniae β11, read-out: MIC90
# [12] = K. pneumoniae β13, read-out: MIC90
# [13] = Klebsiella pneumoniae, read-out: MIC90
# [14] = K. pneumoniae β9, read-out: MIC90
# [15] = Moraxella catarrhalis, M. catarrhalis 2524, read-out: MIC90
# [16] = Pseudomonas aeruginosa, 1912E, read-out: MIC90
# [17] = Pseudomonas aeruginosa, 37, P. aeruginosa 37, read-out: MIC90
# [18] = Pseudomonas aeruginosa, 40, P. aeruginosa 40, read-out: MIC90
# [19] = Pseudomonas aeruginosa, P. aeruginosa 43, read-out: MIC90
# [20] = Pseudomonas aeruginosa, read-out: MIC90
# [21] = Acinetobacter baumannii, 46, A. baumannii 46
# [22] = Acinetobacter baumannii, 49, A. baumannii 49
# [23] = Acinetobacter calcoaceticus, ATCC15473, A. calcoaceticus ATCC15473
# [24] = Pseudomonas aeruginosa, 37, P. aeruginosa 37
Compound,MIC90 (A. baumannii 46; [2]) [µg/mL],MIC90 (A. baumannii 49; [3]) [µg/mL],MIC90 (A. baumannii 52; [4]) [µg/mL],"MIC90 [1, 5] [µg/mL]",MIC90 (E. cloacae β19; [6]) [µg/mL],MIC90 (E. coli AG100; [7]) [µg/mL],MIC90 (E. coli β4; [8]) [µg/mL],MIC90 (K. pneumoniae 2011E; [9]) [µg/mL],MIC90 (K. pneumoniae β14; [13]) [µg/mL],MIC90 (M. catarrhalis 2524; [15]) [µg/mL],MIC90 (P. aeruginosa 1912E; [16]) [µg/mL],MIC90 (P. aeruginosa 37; [17]) [µg/mL],MIC90 (P. aeruginosa 40; [18]) [µg/mL],MIC90 (P. aeruginosa 43; [19]) [µg/mL],MIC90 (P. aeruginosa 6065Y; [20]) [µg/mL],further results
CC(C)(O/N=C(\C(=O)N[C@@H]1C(=O)N2C(C(=O)[O-])=C(C[n+]3cnc(N)c(NCCNC(=O)c4cc(=O)c(O)cn4O)c3)CSC12)c1csc(N)n1)C(=O)O (some centres unmarked) [Compound 1],4,16,32,0.5,2,< 0.0625,2,2,128,1,0.25,0.5,0.25,0.25,1,MIC90 (K. pneumoniae β10; [10]): 0.125 µg/mL; MIC90 (K. pneumoniae β11; [11]): 128 µg/mL; MIC90 (K. pneumoniae β13; [12]): 0.5 µg/mL; MIC90 (K. pneumoniae β9; [14]): 4 µg/mL
CC(C)(O/N=C(\C(=O)N[C@@H]1C(=O)N2C(C(=O)[O-])=C(/C=C/C[n+]3cnc(N)c(NC(=O)CCN)c3)CSC12)c1nc(N)sc1Cl)C(=O)O (some centres unmarked) [Compound 62],,,,,,,,,,,,,,,,"MIC90 (A. baumannii 46; [21]): 16 µg/mL; MIC90 (A. baumannii 49; [22]): 32 µg/mL; MIC90 (A. baumannii 52; Acinetobacter baumannii, 52): 32 µg/mL; MIC90 [1, 23]: 1 µg/mL; MIC90 (E. cloacae β19; Enterobacter cloacae): 4 µg/mL; MIC90 (E. coli AG100; Escherichia coli, AG100): 0.5 µg/mL; MIC90 (E. coli β4; Escherichia coli): 0.5 µg/mL; MIC90 (K. pneumoniae 2011E; Klebsiella pneumoniae, 2011E): 1 µg/mL; MIC90 (K. pneumoniae β10): 0.5 µg/mL; MIC90 (K. pneumoniae β11): 1 µg/mL; MIC90 (K. pneumoniae β13): 1 µg/mL; MIC90 (K. pneumoniae β14; Klebsiella pneumoniae): 1 µg/mL; MIC90 (K. pneumoniae β9): 1 µg/mL; MIC90 (M. catarrhalis 2524; Moraxella catarrhalis, 2524): < 0.0625 µg/mL; MIC90 (P. aeruginosa 1912E; Pseudomonas aeruginosa, 1912E): 4 µg/mL; MIC90 (P. aeruginosa 37; [24]): 8 µg/mL; MIC90 (P. aeruginosa 40; Pseudomonas aeruginosa, 40): 8 µg/mL; MIC90 (P. aeruginosa 43; Pseudomonas aeruginosa, 43): 64 µg/mL; MIC90 (P. aeruginosa 6065Y; Pseudomonas aeruginosa, 6065Y): 16 µg/mL"
CC(C)(O/N=C(\C(=O)N[C@@H]1C(=O)N2C(C(=O)[O-])=C(/C=C/C[n+]3cnc(N)c(NC(=O)c4cc(=O)c(O)cn4O)c3)CSC12)c1csc(N)n1)C(=O)O (some centres unmarked) [Compound 14],2,> 128,8,0.25,64,0.25,1,2,8,0.25,1,16,0.25,0.25,2,MIC90 (K. pneumoniae β10; [10]): 0.5 µg/mL; MIC90 (K. pneumoniae β11; [11]): 64 µg/mL; MIC90 (K. pneumoniae β13; [12]): 0.5 µg/mL; MIC90 (K. pneumoniae β9; [14]): 2 µg/mL
CC(C)(O/N=C(\C(=O)N[C@@H]1C(=O)N2C(C(=O)[O-])=C(C[n+]3cnc(NCCN)c(NCCNC(=O)c4cc(=O)c(O)cn4O)c3)CSC12)c1csc(N)n1)C(=O)O (some centres unmarked) [Compound 5],,,,,,,,,,,,,,,,"MIC90 (A. baumannii 46; [21]): 16 µg/mL; MIC90 (A. baumannii 49; [22]): > 128 µg/mL; MIC90 (A. baumannii 52; Acinetobacter baumannii, 52): > 128 µg/mL; MIC90 [1, 23]: 2 µg/mL; MIC90 (E. cloacae β19; Enterobacter cloacae): 0.5 µg/mL; MIC90 (E. coli AG100; Escherichia coli, AG100): < 0.0625 µg/mL; MIC90 (E. coli β4; Escherichia coli): 0.5 µg/mL; MIC90 (K. pneumoniae 2011E; Klebsiella pneumoniae, 2011E): 2 µg/mL; MIC90 (K. pneumoniae β10): 1 µg/mL; MIC90 (K. pneumoniae β11): 2 µg/mL; MIC90 (K. pneumoniae β13): 0.5 µg/mL; MIC90 (K. pneumoniae β14; Klebsiella pneumoniae): 8 µg/mL; MIC90 (K. pneumoniae β9): < 0.0625 µg/mL; MIC90 (M. catarrhalis 2524; Moraxella catarrhalis, 2524): 0.25 µg/mL; MIC90 (P. aeruginosa 1912E; Pseudomonas aeruginosa, 1912E): 1 µg/mL; MIC90 (P. aeruginosa 37; [24]): 1 µg/mL; MIC90 (P. aeruginosa 40; Pseudomonas aeruginosa, 40): 1 µg/mL; MIC90 (P. aeruginosa 43; Pseudomonas aeruginosa, 43): 0.25 µg/mL; MIC90 (P. aeruginosa 6065Y; Pseudomonas aeruginosa, 6065Y): 4 µg/mL"
CC(C)(O/N=C(\C(=O)N[C@@H]1C(=O)N2C(C(=O)[O-])=C(/C=C/C[n+]3cnc(N)c(NCCNC(=O)c4cc(=O)c(O)cn4O)c3)CSC12)c1nsc(N)n1)C(=O)O (some centres unmarked) [Compound 25],0.5,128,8,0.25,1,< 0.0625,< 0.0625,0.25,16,< 0.0625,0.25,< 0.0625,< 0.0625,0.25,0.5,MIC90 (K. pneumoniae β10; [10]): < 0.0625 µg/mL; MIC90 (K. pneumoniae β11; [11]): > 128 µg/mL; MIC90 (K. pneumoniae β13; [12]): < 0.0625 µg/mL; MIC90 (K. pneumoniae β9; [14]): < 0.0625 µg/mL
CC(C)(ON=C(C(=O)NC1C(=O)N2C(C(=O)[O-])=C(C[n+]3cnc(N)c(NCC=CC(=O)NO)c3)CSC12)c1csc(N)n1)C(=O)O (centres unmarked) [Compound 47],,,,,,,,,,,,,,,,MIC90 (A. baumannii 46; A. baumannii 46): 16 µg/mL; MIC90 (A. baumannii 49; A. baumannii 49): >128 µg/mL; MIC90 (A. baumannii 52; A. baumannii 52): 128 µg/mL; MIC90 ([1]; A. calcoaceticus ATCC15473): 8 µg/mL; MIC90 (E. cloacae β19): 128 µg/mL; MIC90 (E. coli AG100; E. coli AG100): >128 µg/mL; MIC90 (E. coli β4): 16 µg/mL; MIC90 (K. pneumoniae 2011E; K. pneumoniae 2011E): 4 µg/mL; MIC90 (K. pneumoniae β14): 32 µg/mL; MIC90 (M. catarrhalis 2524; M. catarrhalis 2524): 0.25 µg/mL; MIC90 (P. aeruginosa 1912E): 8 µg/mL; MIC90 (P. aeruginosa 37; P. aeruginosa 37): 64 µg/mL; MIC90 (P. aeruginosa 40; P. aeruginosa 40): 32 µg/mL; MIC90 (P. aeruginosa 43; P. aeruginosa 43): 128 µg/mL; MIC90 (P. aeruginosa 6065Y): 128 µg/mL
C[C@H](O/N=C(\C(=O)N[C@@H]1C(=O)N2C(C(=O)[O-])=C(C[n+]3cnc(N)c(NCCNC(=O)c4cc(=O)c(O)cn4O)c3)CSC12)c1csc(N)n1)C(=O)O (some centres unmarked) [Compound 3],2,> 128,128,0.25,2,< 0.0625,1,1,64,2,32,1,0.125,0.25,0.5,
CN(CCNc1c[n+](CC2=C(C(=O)[O-])N3C(=O)[C@@H](NC(=O)/C(=N\OC(C)(C)C(=O)O)c4csc(N)n4)C3SC2)cnc1N)C(=O)c1ccc(O)c(O)c1 (some centres unmarked) [Compound 27],16,> 128,> 128,4,16,1,2,2,32,0.25,1,2,2,1,4,
CC(C)(O/N=C(\C(=O)N[C@@H]1C(=O)N2C(C(=O)[O-])=C(C[n+]3cnc(N)c(NC(=O)CCNC(=O)c4ccc(O)c(O)c4)c3)CSC12)c1csc(N)n1)C(=O)O (some centres unmarked) [Compound 28],8,> 128,16,1,128,> 128,8,8,64,8,32,8,16,4,16,
CC(C)(O/N=C(\C(=O)N[C@@H]1C(=O)N2C(C(=O)[O-])=C(C[n+]3cnc(N)c(NCCNC(=O)c4ccc(O)c(C(=O)O)c4)c3)CSC12)c1csc(N)n1)C(=O)O (some centres unmarked) [Compound 33],128,> 128,> 128,128,> 128,16,64,16,128,2,64,> 128,128,> 128,128,
CC(C)(O/N=C(\C(=O)N[C@@H]1C(=O)N2C(C(=O)[O-])=C(C[n+]3cnc(N)c(NC(=O)CNC(=O)c4ccc(O)c(O)c4)c3)CSC12)c1csc(N)n1)C(=O)O (some centres unmarked) [Compound 32],1,32,16,0.5,128,< 0.0625,8,1,64,0.25,2,4,4,0.5,4,

# — patent US9630977B2, “Cephalosporin derivatives and pharmaceutical compositions thereof” (Legochem Biosciences, Inc., priority 2011, dated 2017)
